Experimental data published in patent US20250072423A1, “THIOPHENE ACETIC ACID FOR PLANT GROWTH REGULATION” (priority 2023, published 2025).

What was measured:
AtLBD29, AT3G58190 = assay: qRT-PCR of early auxin-responsive gene AtLBD29 (Experiment 9); format: in vivo, A. thaliana; details: 5 and 10 μM TAA, both time points
Experimental: (§1) To analyze TAA responsive genes in Arabidopsis, WT Arabidopsis seeds were germinated as described and 14-day-old uniform-looking seedlings were initially acclimatized in liquid germination medium for 2 hours before transferring to medium containing different concentrations of TAA (5 and 10 μM). Seedlings in media supplemented with DMSO were used as control. Five random seedlings were selected and considered as one sample and three samples from both control and treatments were flash frozen in liquid nitrogen and total RNA was isolated using a TRIzol reagent (ThermoFisher Scientific, Cat #15596026).
(§2) Expression levels of seven previously reported early auxin-responsive genes were verified by qRT-PCR (quantitative reverse transcription polymerase chain reaction). RNA reverse transcription was performed using QuantiTect Reverse Transcription Kit (Qiagen). Three biological replicates and three technical replicates were used for all qRT-PCRs. Arabidopsis actin gene (AT3G18780) was used as internal reference.

WT A. thaliana seedlings = assay: Root gravitropism of WT Arabidopsis seedlings (Experiment 8); format: in vivo
Experimental: (§3) Arabidopsis Columbia-0 wild type (WT) was used for assessing the effect of TAA on root growth and its effects on the expression of auxin-responsive genes. Seeds of A. thaliana were surface sterilized by suspending in 70% ethanol for 1 minute, followed by treatment with 10% bleach for 20 minutes. After thorough washing with sterile distilled water, the sterilized seeds were plated onto germination medium (half-strength Murashige and Skoog basal medium with vitamins (1/2 MS) medium supplemented with 1% sucrose and 0.7% plant agar) for germination. Germination was initiated by incubating the seeds in darkness at 5° C. for 2 days, followed by transfer to a light environment at 22° C. with a photoperiod of 16-h light/8-h dark for further growth. Stock solutions of TAA were prepared in DMSO (dimethyl sulfoxide). In control treatments, DMSO was used in equal amounts as present in the greatest concentration of TAA tested.
To analyze the effect of TAA on gravitropism, WT A. thaliana seeds were cultured on 1/2 MS medium for 8 days. Uniform seedlings were then selected and vertically grown in germination medium supplemented with different concentrations of TAA (1, 2, 5, 10, and 25 μM) for 24 h. Seedlings grown on media supplemented with DMSO were used as control. The plates were then rotated clockwise 90° to make the root parallel to the ground. The seedlings were allowed to grow for 73 h and the plates were photographed at different intervals. Image J software was used to measure the curvature of 16 plants each in the control and treatment groups.

tobacco leaf explants = assay: Shoot organogenesis from tobacco leaf explants in vitro (Experiment 4); format: cell-based, Nicotiana tabacum L. cv. Petit Havana SRI; details: 8 weeks
WT Arabidopsis seedlings = assay: Root growth of WT Arabidopsis seedlings (Experiment 6); format: in vivo, A. thaliana
Experimental: as §3
To analyze the effect of TAA on root growth, WT Arabidopsis seedlings were germinated as described and uniform-looking 8-day-old seedlings were transferred to germination medium supplemented with different concentrations of TAA (0.1, 1, 2, 5, 10, 25, 50, and 100 μM) or NAA/IAA/IBA (0.05, 0.1, 1, 2 and 5 μM). For IBA, two additional concentrations (10 and 25 μM) were also analyzed. Seedlings grown on media supplemented with an equal volume of DMSO were used as control. The seedlings were allowed to grow for 6 days and the plates were photographed at 24 h intervals. Primary root length was measured using Image J software. The difference in the number of lateral roots (LR) and root hairs was visually observed. Microscopic images were taken on a Leica Thunder Imager System (Leica Microsystems Ltd., Switzerland) and the images were processed with LAS X software.

[1] = system: tomato cotyledon explants; assay: Shoot regeneration from tomato cotyledon explants with 1 mg/L BAP (Experiment 3); format: cell-based, tomato cultivar Roma VF
AtPIN1 (AT1G73590) = assay: qRT-PCR of early auxin-responsive gene AtPIN1 (Experiment 9); format: in vivo, A. thaliana; details: 10 μM TAA, after 6 hours
Experimental: as §1, §2

O=C(O)Cc1ccsc1 [TAA]
AtLBD29 expression (AtLBD29, AT3G58190): upregulation
growth angle of primary roots (WT A. thaliana seedlings; 50 h after treatment (FIG. 8b)): ~90 °
growth angle of primary roots (WT A. thaliana seedlings; higher concentrations (5, 10 and 25 μM)): did not show a marked change in growth angle
rate of gravitropic response (WT A. thaliana seedlings; lower concentrations (1 and 2 μM), plates rotated 90°): enhanced the rate of gravitropic response
number of shoots regenerated per explant versus basic shoot regeneration media (tobacco leaf explants; 1 mg/L TAA with 2 mg/L kinetin): 3 times
total number of shoots regenerated versus basic shoot regeneration media (tobacco leaf explants; 1 mg/L TAA with 2 mg/L kinetin): 3 times
number of shoots regenerated per explant versus basic shoot regeneration media (tobacco leaf explants; 2 mg/L TAA with 2 mg/L kinetin): 3 times
total number of shoots regenerated versus basic shoot regeneration media (tobacco leaf explants; 2 mg/L TAA with 2 mg/L kinetin): 3 times
number of regenerated shoots versus basic shoot regeneration media (tobacco leaf explants; 3 mg/L TAA with 2 mg/L kinetin): more than double
number of regenerated shoots versus basic shoot regeneration media (tobacco leaf explants; 5 mg/L TAA with 2 mg/L kinetin): more than double
effect on shoot regeneration and size of regenerated shoots (tobacco leaf explants; TAA added to 3% MS + 2 mg/L kinetin): positive effect
length of the primary root relative to control (WT Arabidopsis seedlings; 50 μM, after 6 days of treatment, 8-day-old seedlings): 50%
number and elongation of lateral roots (LR) (WT Arabidopsis seedlings; higher concentrations (5 μM and above)): reduced the number of LR and inhibited the elongation of LR
effect on primary root length (WT Arabidopsis seedlings; low concentration range (FIG. 8a)): promoter role
number of lateral roots (LR) (WT Arabidopsis seedlings; lower concentrations of TAA): increased
number of shoots (shoot regeneration) ([1]; 10.0 mg/L with 1 mg/L BAP): maximum number of shoots
start of shoot formation ([1]; 0.05, 0.1, 0.5, 1.0, 2.0 and 10.0 mg/L with 1 mg/L BAP): ~14 days
shoot organogenesis ([1]; 0.05, 0.1, 0.5, 1.0, 2.0 and 10.0 mg/L with 1 mg/L BAP, by Day 28): many explants had well defined shoots
AtPIN1 gene expression (AtPIN1 (AT1G73590)): nearly five-fold
